Some test systems named below: U251 CNS; HS 578T breast; HT29 colon; PC-3 prostate; RXF 393 renal; LOX IMVI melanoma; K-562 leukemia; MDA-MB-231 breast; OVCAR-3 ovarian; CAKI-1 renal; IGROV1 ovarian; OVCAR-4 ovarian; MDA-MB-435; NCI-H460 lung; KM12 colon; HL-60(TB) leukemia; MDA-N; HOP-62 NSCLC; SK-MEL-28 melanoma; SNB-75 CNS.
Holding throughout (test): NCI tumour cell line growth inhibition, 48 h

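Where inhibition never reached the appropriate level, the endpoint shown equals the highest concentration tested. Otherwise, values were interpolated linearly from a five-concentration, 48-hour dose response in 96-well plates. TGI marks complete inhibition of growth.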

Take `O=c1cc(CNC2CC3CCC2C3)[nH]c(=O)[nH]1` (stereo not drawn): the TGI with U251 CNS, in the test with HS 578T breast, in the test with HT29 colon, in the test on PC-3 prostate, with RXF 393 renal and with LOX IMVI melanoma was more than 100 µM in each case. Also, the TGI in the test with K-562 leukemia, in the test on MDA-MB-231 breast, in the test with OVCAR-3 ovarian, in the test on CAKI-1 renal, with IGROV1 ovarian and with OVCAR-4 ovarian was more than 100 µM in each case. Further, the TGI in the test with MDA-MB-435, in the test with NCI-H460 lung, in the test with KM12 colon, in the test with HL-60(TB) leukemia, with MDA-N and in the test with HOP-62 NSCLC was more than 100 µM throughout. Further, the TGI in the test with SK-MEL-28 melanoma and in the test on SNB-75 CNS was more than 100 µM each time.

On to `c1n[nH]cc1C12C3C4C5C3C1C5C42` (stereo not drawn), for which the TGI in the test with U251 CNS, in the test on HS 578T breast, in the test with HT29 colon, in the test with PC-3 prostate, with RXF 393 renal and with LOX IMVI melanoma was more than 100 µM each time. The TGI in the test on K-562 leukemia, with MDA-MB-231 breast, with OVCAR-3 ovarian, in the test on CAKI-1 renal, in the test with IGROV1 ovarian and in the test on OVCAR-4 ovarian was more than 100 µM in each case. Also, the TGI in the test with MDA-MB-435, in the test on KM12 colon, with HL-60(TB) leukemia, in the test on MDA-N, in the test on HOP-62 NSCLC and in the test on SK-MEL-28 melanoma was more than 100 µM each time. In the test on SNB-75 CNS, this compound had a TGI of more than 100 µM.

Turning to `Cc1ccc(S(=O)(=O)N2CC(CCN)c3ccccc32)cc1` (stereo not drawn), the TGI in the test on U251 CNS is 18.4 µM; with HS 578T breast, 54.5 µM; in the test on HT29 colon, 8.14 µM; in the test with PC-3 prostate, 29 µM; with RXF 393 renal, 12.6 µM; with LOX IMVI melanoma, 13.5 µM. Also, the TGI was more than 60.8 µM in the test on K-562 leukemia; 29.9 µM in the test on MDA-MB-231 breast; 26.2 µM in the test with OVCAR-3 ovarian; 23.8 µM in the test with CAKI-1 renal; more than 53.4 µM in the test on IGROV1 ovarian; more than 100 µM in the test with OVCAR-4 ovarian. The TGI in the test on MDA-MB-435 was 27.1 µM; in the test with NCI-H460 lung, more than 64.8 µM; in the test on KM12 colon it was more than 100 µM; with HL-60(TB) leukemia, more than 100 µM; with MDA-N, 11 µM; in the test with HOP-62 NSCLC, more than 29.1 µM. Besides, the TGI was found to be 34.7 µM in the test on SK-MEL-28 melanoma and 26.5 µM in the test with SNB-75 CNS.

Turning to `O=C(/C=C(\Nc1ccccc1O)c1ccc(Br)cc1)C(Cl)(Cl)Cl`, the TGI was found to be 15.4 µM in the test with U251 CNS; 18.1 µM in the test with HS 578T breast; 20.8 µM with HT29 colon; 11.9 µM in the test with PC-3 prostate; 19.2 µM in the test on RXF 393 renal; 32.9 µM in the test with LOX IMVI melanoma. The TGI stood at 32.5 µM in the test on K-562 leukemia; 20.3 µM in the test on MDA-MB-231 breast; 18.5 µM in the test on OVCAR-3 ovarian; 20.7 µM in the test on CAKI-1 renal; 23.7 µM with IGROV1 ovarian; 19.2 µM with OVCAR-4 ovarian. The TGI in the test with MDA-MB-435 amounted to 21.8 µM; with NCI-H460 lung, 12.9 µM; in the test with KM12 colon, 13.9 µM; with HL-60(TB) leukemia it was 9.39 µM; in the test with MDA-N it was 17.3 µM; in the test with HOP-62 NSCLC, 31.6 µM. In addition, the TGI in the test with SK-MEL-28 melanoma turned out to be 24.6 µM; in the test on SNB-75 CNS it was 26.8 µM.

As to `CSc1c(C#N)c(S)n(-c2ccc(Cl)cc2)c(=O)c1C#N`, the TGI with U251 CNS, in the test with HS 578T breast, with HT29 colon, in the test with PC-3 prostate, in the test on RXF 393 renal and in the test with LOX IMVI melanoma was more than 100 µM in each case. For the same compound, the TGI in the test on K-562 leukemia, with MDA-MB-231 breast, in the test on OVCAR-3 ovarian, in the test on CAKI-1 renal, in the test with IGROV1 ovarian and with OVCAR-4 ovarian was more than 100 µM throughout. The TGI with MDA-MB-435, in the test on NCI-H460 lung, in the test on KM12 colon, in the test with HL-60(TB) leukemia, in the test with MDA-N and with SK-MEL-28 melanoma was more than 100 µM in each case. The compound further returned a TGI in the test on SNB-75 CNS of more than 100 µM.

On to `CCOC(=O)/C=C/C1(CCOC(C)=O)CCCCC1`, for which the TGI in the test with U251 CNS, in the test with HS 578T breast, in the test on HT29 colon, in the test on PC-3 prostate, in the test with RXF 393 renal and in the test on LOX IMVI melanoma was more than 10 µM each time. Further, the TGI with K-562 leukemia, in the test on MDA-MB-231 breast, in the test on OVCAR-3 ovarian, with CAKI-1 renal, in the test on IGROV1 ovarian and in the test with OVCAR-4 ovarian was more than 10 µM in each case. Besides, the TGI in the test with MDA-MB-435, in the test with NCI-H460 lung, in the test on KM12 colon, in the test with HL-60(TB) leukemia, in the test on MDA-N and in the test on HOP-62 NSCLC was more than 10 µM in each case. In addition, the TGI with SK-MEL-28 melanoma and with SNB-75 CNS was more than 10 µM throughout.

For the compound `O/N=C1/CCCc2nonc21`, the TGI in the test with U251 CNS, in the test with HS 578T breast, with HT29 colon, in the test with PC-3 prostate, in the test on RXF 393 renal and in the test with LOX IMVI melanoma was more than 100 µM in each case. Also, the TGI with K-562 leukemia, with MDA-MB-231 breast, with OVCAR-3 ovarian, in the test on CAKI-1 renal, in the test on IGROV1 ovarian and in the test with OVCAR-4 ovarian was more than 100 µM in each case. Moreover, the TGI with MDA-MB-435, in the test with NCI-H460 lung, in the test with KM12 colon, with HL-60(TB) leukemia, with MDA-N and with HOP-62 NSCLC was more than 100 µM in each case. Also, the TGI in the test with SK-MEL-28 melanoma and in the test with SNB-75 CNS was more than 100 µM throughout.

Source of the values: PubChem BioAssay (NCI).
